Data reported in US5250518A, “O-methyl derivatives of azithromycin A” (priority 1990, dated 1993).
In brackets after ≈: the same amount, converted by molar mass. Where two headings read alike, the source gives them in different places.

What was measured:
[1] = tested on: Klebsiella pneumoniae NCTC-10499; assay: Antibacterial in vitro activity, tube dilution method (Table 1); assay type: cell-based; settings: NCTC10499, 24 h
Protocol: (§1) O-methyl derivatives of azithromycin A of the formulae (Ii)-(Il) and their pharmaceutically acceptable addition salts have a potent antimicrobial activity. The preliminary antibacterial in vitro activity of 6-O-methyl-azithromycin A (Ii) was determined on a series of gram-positiveand gram-negative test bacteria and clinical isolates in comparison with erythromycin A. The assessment was performed by the "tube dilution" method. In the investigation there were used 24-hours cultures in "brain hearth bouillon" of standard strains and freshly isolated strains from a clinical sample.
(§2) Substrate: Brain hearth bouillon
(§3) Incubation: 24 hours, 37° C.
(§4) MIC: Minimal Inhibitory Concentration (μg/mL)
(§5) MBC: Minimal Bactericidal Concentration (μg/mL)

[2] = tested on: Pseudomonas aeruginosa NCTC-10490; assay: as above; assay type: cell-based; settings: NCTC10490, 24 h
Protocol: as §1, §2, §3, §4, §5

[3] = tested on: Staphilococcus aureus ATCC 6538-P; assay: as above; assay type: cell-based; settings: 24 h
Protocol: as §1, §2, §3, §4, §5

[4] = tested on: Streptococcus faecalis ATCC-8043; assay: as above; assay type: cell-based; settings: Enterococcus faecalis, ATCC8043, 24 h
Protocol: as §1, §2, §3, §4, §5

[5] = tested on: Escherichia coli ATCC 10536; assay: as above; assay type: cell-based; settings: ATCC10536, Brain hearth bouillon, 24 hours, 37° C.
Protocol: as §1, with “The” for “O-methyl derivatives of azithromycin A of the formulae (Ii)-(Il) and their pharmaceutically acceptable addition salts have a potent antimicrobial activity. The”

[6] = tested on: Sarcina lutea ATCC-9341; assay: as above; assay type: cell-based; settings: Micrococcus luteus, ATCC9341, Brain hearth bouillon, 24 hours, 37° C.
Protocol: as §1, with “The” for “O-methyl derivatives of azithromycin A of the formulae (Ii)-(Il) and their pharmaceutically acceptable addition salts have a potent antimicrobial activity. The”

[7] = tested on: Haemophylus influenzae 4028; assay: Antibacterial in vitro activity against clinical isolates, tube dilution method (Table 2); assay type: cell-based; settings: clinical isolate, Brain hearth bouillon, 24 hours, 37° C.
Protocol: as §1, §2, §3, §4
(§6) MBC: Minimal Bactericidal Concentation (μg/mL)

[8] = tested on: Staphylococcus aureus 10097; assay: as above; assay type: cell-based; settings: clinical isolate, Brain hearth bouillon, 24 hours, 37° C.
Protocol: as §1, §2, §3, §4, §6

[9] = tested on: Staphylococcus aureus 10099; assay: as above; assay type: cell-based; settings: clinical isolate, Brain hearth bouillon, 24 hours, 37° C.
Protocol: as §1, §2, §3, §4, §6

[10] = tested on: Staphylococcus saprophyticus 3947; assay: as above; assay type: cell-based; settings: clinical isolate, Brain hearth bouillon, 24 hours, 37° C.
Protocol: as §1, §2, §3, §4, §6

[11] = tested on: Streptococcus faecalis 10390; assay: as above; assay type: cell-based; settings: Enterococcus faecalis, clinical isolate, Brain hearth bouillon, 24 hours, 37° C.
Protocol: as §1, §2, §3, §4, §6

[12] = tested on: Streptococcus pneumoniae 4050; assay: as above; assay type: cell-based; settings: clinical isolate, Brain hearth bouillon, 24 hours, 37° C.
Protocol: as §1, §2, §3, §4, §6

[13] = cited from earlier work
[14] = tested on: ATCC 6538P; assay: Antibacterial in vitro activity in comparison with azithromycin (Table 3); assay type: cell-based, Staphilococcus aureus
From the text: (§7) In Table 3 there are represented in vitro tests of 6-O-methyl- (Ii), 6,11-di-O-methyl- (Ij), 11-O-methyl- (Ik) and 6,11,4"-tri-O-methyl-azithromycin A (II) in comparison with azithromycin.

[15] = tested on: ATCC 10240; assay: as above; assay type: cell-based; settings: Brain hearth Bouillon, 24-48 hours, 37° C., inoculum 10^-5 -10^-6 cfu/mL
From the text: as §7

[16] = tested on: ATCC 8043; assay: as above; assay type: cell-based; settings: Staphylococcus faecalis, ATCC8043; Brain hearth Bouillon, 24-48 hours, 37° C., inoculum 10^-5 -10^-6 cfu/mL
From the text: as §7

[17] = tested on: Bacillus cereus NCTC 10320; assay: as above; assay type: cell-based; settings: NCTC10320, Brain hearth Bouillon, 24-48 hours, 37° C., inoculum 10^-5 -10^-6 cfu/mL
From the text: as §7

[18] = tested on: Bacillus pumilus NCTC 8241; assay: as above; assay type: cell-based; settings: NCTC8241, Brain hearth Bouillon, 24-48 hours, 37° C., inoculum 10^-5 -10^-6 cfu/mL
From the text: as §7

[19] = tested on: Bacillus subtilis NCTC 8241; assay: as above; assay type: cell-based; settings: Bacillus subtilis, NCTC8241; Brain hearth Bouillon, 24-48 hours, 37° C., inoculum 10^-5 -10^-6 cfu/mL
From the text: as §7

[20] = tested on: Corynebacterium xerosis NCTC 9755; assay: as above; assay type: cell-based; settings: NCTC9755, Brain hearth Bouillon, 24-48 hours, 37° C., inoculum 10^-5 -10^-6 cfu/mL
From the text: as §7

[21] = tested on: Escherichia coli ATCC 10536; assay: as above; assay type: cell-based; settings: ATCC10536, Brain hearth Bouillon, 24-48 hours, 37° C., inoculum 10^-5 -10^-6 cfu/mL
From the text: as §7

[22] = tested on: Pseudomonas aeruginosa NCTC 10490; assay: as above; assay type: cell-based; settings: NCTC10490, Brain hearth Bouillon, 24-48 hours, 37° C., inoculum 10^-5 -10^-6 cfu/mL
From the text: as §7

[23] = tested on: Sarcina lutea ATCC 9341; assay: as above; assay type: cell-based; settings: Micrococcus luteus, ATCC9341; Brain hearth Bouillon, 24-48 hours, 37° C., inoculum 10^-5 -10^-6 cfu/mL
From the text: as §7

[24] = tested on: Staphylococcus epidermidis ATCC 12228; assay: as above; assay type: cell-based; settings: ATCC12228, Brain hearth Bouillon, 24-48 hours, 37° C., inoculum 10^-5 -10^-6 cfu/mL
From the text: as §7

[25] = tested on: gram-negative microorganisms; settings: in comparison with the parent antibiotic (erythromycin A); cited from earlier work
[26] = in comparison with the parent antibiotic (erythromycin A); cited from earlier work
[27] = tested on: gram-positive microorganisms; settings: in comparison to erythromycin A; cited from earlier work
[28] = read-out: MBC (Minimal Bactericidal Concentration)
[29] = read-out: MIC (Minimal Inhibitory Concentration)
[30] = read-out: MBC (Minimal Bactericidal Concentation)
[31] = Brain hearth Bouillon, 24-48 hours, 37° C., inoculum 10^-5 -10^-6 cfu/mL, read-out: MIC

Work on `CC[C@H]1OC(=O)[C@H](C)[C@@H](O[C@H]2C[C@@](C)(OC)[C@@H](O)[C@H](C)O2)[C@H](C)[C@@H](O[C@@H]2O[C@H](C)C[C@H](N(C)C)[C@H]2O)[C@](C)(O)C[C@@H](C)C(=O)[C@H](C)[C@@H](O)[C@]1(C)O` [Erythromycin A, reference compound] yielded an MBC [1, 28] greater than 50 mg/L, an MIC [1, 29] greater than 50 mg/L and an MBC [2, 28] greater than 50 mg/L. It also gave an MIC [2, 29] greater than 50 mg/L, an MBC [3, 28] of 0.8 mg/L (≈ 1.09 µM) and an MIC [3, 29] of 0.2 mg/L (≈ 0.273 µM). The MBC [4, 28] was 0.8 mg/L (≈ 1.09 µM), the MIC [4, 29] was 0.2 mg/L (≈ 0.273 µM) and the MBC [5, 28] was greater than 50 mg/L. It also gave an MIC [5, 29] of 50 mg/L (≈ 68.1 µM), an MBC [6, 28] of 0.4 mg/L (≈ 0.545 µM) and an MIC [6, 29] of 0.2 mg/L (≈ 0.273 µM). The MBC [7, 30] was 0.2 mg/L (≈ 0.273 µM), the MIC [7, 29] was 0.05 mg/L (≈ 0.0681 µM) and the MBC [8, 30] was 0.4 mg/L (≈ 0.545 µM). It also gave an MIC [8, 29] of 0.1 mg/L (≈ 0.136 µM), an MBC [9, 30] of 0.2 mg/L (≈ 0.273 µM) and an MIC [9, 29] of 0.1 mg/L (≈ 0.136 µM). For the same compound, the MBC [10, 30] was 0.8 mg/L (≈ 1.09 µM), the MIC [10, 29] was 0.4 mg/L (≈ 0.545 µM) and the MBC [11, 30] was 3.1 mg/L (≈ 4.22 µM). It also gave an MIC [11, 29] of 0.8 mg/L (≈ 1.09 µM), an MBC [12, 30] of 0.4 mg/L (≈ 0.545 µM) and an MIC [12, 29] of 0.1 mg/L (≈ 0.136 µM). For the same compound, the “behaviour in acidic medium” value ([13]; acidic medium) was “easily converted into anhydroerythromycin”.

Work on `CC[C@H]1OC(=O)[C@H](C)[C@@H](O[C@H]2C[C@@](C)(OC)[C@@H](O)[C@H](C)O2)[C@H](C)[C@@H](O[C@@H]2O[C@H](C)C[C@H](N(C)C)[C@H]2O)[C@](C)(OC)C[C@@H](C)CN(C)[C@H](C)[C@@H](OC)[C@]1(C)O` [Ij, 6,11-Di-O-Methyl-azithromycin A] yielded an MIC [14, 31] of 1.56 mg/L (≈ 2.01 µM), an MIC [15] of 0.78 mg/L (≈ 1 µM) and an MIC [16] of 0.78 mg/L (≈ 1 µM). The MIC [17] was 1.56 mg/L (≈ 2.01 µM), the MIC [18] was 0.78 mg/L (≈ 1 µM) and the MIC [19] was 0.78 mg/L (≈ 1 µM). It also gave an MIC [20] of 12.5 mg/L (≈ 16.1 µM), an MIC [21] of 6.25 mg/L (≈ 8.04 µM) and an MIC [22] of 100 mg/L (≈ 129 µM). It also gave an MIC [23] of 0.05 mg/L (≈ 0.0643 µM) and an MIC [24] of 1.56 mg/L (≈ 2.01 µM).

`CC[C@H]1OC(=O)[C@H](C)[C@@H](O[C@H]2C[C@@](C)(OC)[C@@H](OC)[C@H](C)O2)[C@H](C)[C@@H](O[C@@H]2O[C@H](C)C[C@H](N(C)C)[C@H]2O)[C@](C)(OC)C[C@@H](C)CN(C)[C@H](C)[C@@H](OC)[C@]1(C)O` [Il, 6,11,4"Tri-O-Methyl-azithromycin A] gave an MIC [14, 31] of 3.12 mg/L (≈ 3.95 µM), an MIC [15] of 3.12 mg/L (≈ 3.95 µM) and an MIC [16] of 0.78 mg/L (≈ 0.986 µM). It also gave an MIC [17] of 3.12 mg/L (≈ 3.95 µM), an MIC [18] of 3.12 mg/L (≈ 3.95 µM) and an MIC [19] of 3.12 mg/L (≈ 3.95 µM). The MIC [20] was 25 mg/L (≈ 31.6 µM), the MIC [21] was 6.25 mg/L (≈ 7.9 µM) and the MIC [22] was 200 mg/L (≈ 253 µM). It also gave an MIC [23] of 0.05 mg/L (≈ 0.0632 µM) and an MIC [24] of 3.12 mg/L (≈ 3.95 µM).

`CC[C@H]1OC(=O)[C@H](C)[C@@H](O[C@H]2C[C@@](C)(OC)[C@@H](O)[C@H](C)O2)[C@H](C)[C@@H](O[C@@H]2O[C@H](C)C[C@H](N(C)C)[C@H]2O)[C@](C)(O)C[C@@H](C)CN(C)[C@H](C)[C@@H](O)[C@]1(C)O` [azithromycin, N-methyl-11-aza-10-deoxo-10-dihydroerythromycin A (9-deoxo-9a-aza-9a-methyl-9a-homoerythromycin A)] gave an MIC [14] of 1.56 mg/L (≈ 2.08 µM), an MIC [15] of 0.39 mg/L (≈ 0.521 µM) and an MIC [16] of 0.05 mg/L (≈ 0.0668 µM). It also gave an MIC [17] of 0.39 mg/L (≈ 0.521 µM), an MIC [18] of 0.2 mg/L (≈ 0.267 µM) and an MIC [19] of 0.39 mg/L (≈ 0.521 µM). It also gave an MIC [20] of 6.25 mg/L (≈ 8.34 µM), an MIC [21] of 0.78 mg/L (≈ 1.04 µM) and an MIC [22] of 100 mg/L (≈ 134 µM). For the same compound, the MIC [23] was 0.05 mg/L (≈ 0.0668 µM), the MIC [24] was 0.1 mg/L (≈ 0.134 µM) and the “stability in acidic medium in comparison with the parent antibiotic” value ([13]; versus erythromycin A) was “improved stability in acidic medium”. For the same compound, the “in vitro activity against gram-negative microorganisms” value [25] was “improved in vitro activity against gram-negative microorganisms” and the “concentration in the tissues” value [26] was “significantly higher conncentration in the tissues”.

For `CC[C@H]1OC(=O)[C@H](C)[C@@H](O[C@H]2C[C@@](C)(OC)[C@@H](O)[C@H](C)O2)[C@H](C)[C@@H](O[C@@H]2O[C@H](C)C[C@H](N(C)C)[C@H]2O)[C@](C)(OC)C[C@@H](C)C(=O)[C@H](C)[C@@H](O)[C@]1(C)O` [clarithromycin, 6-O-methyl-erythromycin A], the “in vitro activity against gram-positive microorganisms” value [27] is listed as “improved in vitro activity against gram-positive microorganisms”.
